Read-outs that look alike come from different tables or passages of the source.
Experiments:
Fusarium culmorum = Fusarium culmorum test (wheat)/seed treatment; type: in vivo; conditions: 75 g/ha, dry seed dressing, approximately 3 weeks after sowing
Protocol: Fusarium Culmorum Test (Wheat)/Seed Treatment
The active compounds are applied as a dry dressing. They are prepared by extending the active compound in question with ground minerals to give a finely pulverulent mixture which ensures even distribution on the surface of the seeds.
For the dressing, the infected seeds are shaken with the dressing in a closed glass bottle for 3 minutes.
2×100 seeds of the wheat are sown at a depth of 1 cm into standard soil, and the wheat is cultivated in a greenhouse at a temperature of approximately 18° C. and at a relative atmospheric humidity of approximately 95% in seed containers receiving 15 hours of light per day.
The evaluation of the plants for symptoms is carried out approximately 3 weeks after sowding.

Botrytis cinerea = test: Botrytis test (bean)/protective; conditions: 2 days after inoculation
Description: If the actual fungicidal activity exceeds the calculated value, then the activity of the combination is superadditive, i.e. a synergistic effect exists. In this case, the efficacy which was actually observed must be greater than the value for the expected efficacy (E) calculated from the formula set out above.
After the spray coating has dried on, 2 small pieces of agar colonized by Botrytis cinerea are placed onto each leaf. The inoculated plants are placed in a dark chamber at approximately 20° C. and 100% relative atmospheric humidity.
2 days after the inoculation, the size of the disease spots on the leaves is evaluated.

Spodoptera frugiperda [1] = test: Critical concentration test/soil insects, Spodoptera frugiperda (maize); type: in vivo
Description: (§1) The active compound preparation is mixed intimately with soil. Here, the concentration of the active compound in the preparation is almost irrelevant; only the amount by weight of active compound or active compound mixture per volume unit of soil, which is stated in ppm (mg/l), matters.

[2] = system: Phaedon cochleariae larvae; test: Critical concentration test/root-systemic action, Phaedon cochleariae (cabbage); type: in vivo
Protocol: as §1
Soil is filled into 250 ml pots and these are planted with cabbage (Brassica oleracea). The active compound or the active compound combination can thus be taken up by the plant roots from the soil and transported into the leaves.

[3] = system: caterpillars of the diamondback moth (Plutella xylostella); test: Plutella test (cabbage leaf dip); type: in vivo
[4] = system: Heliothis virescens caterpillars; test: Heliothis virescens test (soya bean shoot dip); type: in vivo
Pyrenophora teres = Pyrenophora teres test (barley)/protective; type: in vivo; conditions: 7 days after inoculation, single value given
Protocol: After the spray coating has dried on, the plants are sprayed with a conidia suspension of Pyrenophora teres.
The plants are then placed in a greenhouse at a temperature of approximately 20° C. and a relative atmospheric humidity of approximately 80%.
Evaluation is carried out 7 days after the inoculation.

Sphaerotheca fuliginea = test: Sphaerotheca test (cucumber)/protective; type: in vivo; conditions: 10 days after inoculation
Protocol: After the spray coating has dried on, the plants are inoculated with an aqueous spore suspension of Sphaerotheca fuliginea.
(§2) Evaluation is carried out 10 days after the inoculation.

Phytophthora infestans = type: in vivo; conditions: 3 days after inoculation
Puccinia recondita = test: Puccinia test (wheat)/protective; type: in vivo; conditions: 18.75 g/ha, 10 days after inoculation
Protocol: After the spray coating has dried on, the plants are sprayed with a conidia suspension of Puccinia recondita.
The plants are then placed in a greenhouse at a temperature of approximately 20° C. and a relative atmospheric humidity of 80% to promote the development of rust pustules.
as §2

Spodoptera frugiperda [5] = test: Critical concentration test/root systemic action, Spodoptera frugiperda (maize); type: in vivo
Protocol: The preparation of active compound is mixed intimately with soil. Here, the concentration of the active compound in the preparation is virtually immaterial; only the amount by weight of active compound per volume unit of soil, which is stated in ppm (mg/l), matters. The soil is filled into 250 ml pots and these are allowed to stand at 20° C.
Immediately after preparation, 3 maize corns are placed into each pot. 14 days after the preparation, the test insects are placed into an insect bracket and attached to the plant. 4 days after the infection, the efficacy of the active compound is determined in % by counting the dead and live test insects. The efficacy is 100% if all test insects have been killed; it is 0% if the same number of test insects is alive as in the untreated control.

[6] = system: Erysiphe graminis f.sp. hordei; test: Erysiphe test (barley)/protective; type: in vivo; conditions: 62.5 g/ha, 7 days after inoculation; single value given
[7] = system: green rice leaf hopper (Nephotettix cincticeps); test: Nephotettix test (rice seedling dip); type: in vivo
[8] = system: larvae of the mustard beetle (Phaedon cochleariae); test: Phaedon larvae test (cabbage leaf dip)
[9] = system: Diabrotica balteata - larvae in the soil; test: Critical concentration test/soil insects, Diabrotica balteata larvae in the soil (maize); type: in vivo
Protocol: Here, the concentration of the active compound in the preparation is almost irrelevant; only the amount by weight of active compound per volume unit of soil, which is stated in ppm (mg/l), matters. The soil is filled into 0.51 pots and these are allowed to stand at 20° C.
Immediately after preparation, 5 maize corns are placed into each pot. After 3 days, the test insects are placed into the treated soil. After a further 7 days, the efficacy is determined. The efficacy is calculated from the number of maize plants which have emerged.

[10] = Spodoptera frugiperda, 120 h, 20.00 ppm in soil, read-out: Kill in %
[11] = Spodoptera frugiperda, soil, 120 h, read-out: Kill in %

## N#Cc1c[nH]cc1-c1cccc2c1OC(F)(F)O2 [fludioxonil]
Fusarium culmorum
  Efficacy in %: 0%
Botrytis cinerea; 10 g/ha
  Efficacy in % found: 40%

## CC(C)(C)C(O)(CCc1ccc(Cl)cc1)Cn1cncn1 (centres unmarked) [tebuconazole]
Spodoptera frugiperda [1]; [10]
  pest or weed control at 20 ppm: 0%
[2]; 20.00 ppm in soil
  Kill in %: 0%
Botrytis cinerea; 100 g/ha
  Efficacy in % found: 80%
[3]; concentration 0.02 %
  Kill in %: 0%

## CO/C=C(/C(=O)OC)c1ccccc1Oc1cc(Oc2ccccc2C#N)ncn1 [azoxystrobin]
Spodoptera frugiperda [1]; [10]
  pest or weed control at 20 ppm: 0%
[2]; 20.00 ppm in soil
  Kill in %: 0%
[4]; concentration 0.0008 %
  Kill in %: 0%
Pyrenophora teres; 18.75 g/ha
  Efficacy in % calculated/found: 0%

## CC(C1CC1)C(O)(Cn1cncn1)c1ccc(Cl)cc1 (centres unmarked) [cyproconazole]
Spodoptera frugiperda [1]; [10]
  pest or weed control at 20 ppm: 0%
Sphaerotheca fuliginea; 10 g/ha
  Efficacy in % found: 70%

## CC(C)(C)C(O)C(Oc1ccc(Cl)cc1)n1cncn1 (centres unmarked) [triadimenol]
Phytophthora infestans; 500 g/ha
  Efficacy in % found: 0%
Spodoptera frugiperda [1]; [10]
  pest or weed control at 20 ppm: 0%
[2]; 20.00 ppm in soil
  Kill in %: 0%
Fusarium culmorum
  Efficacy in %: 13.5%
Puccinia recondita
  Efficacy in %: 13%

## CNC(=N[N+](=O)[O-])NCc1cnc(Cl)s1 [formula (I)]
Spodoptera frugiperda [1]; [11]
  pest or weed control at 0.06 ppm: 98%
  pest or weed control at 0.3 ppm: 50%
  pest or weed control at 1.25 ppm: 100%
[2]; 0.30 ppm in soil
  Kill in %: 50%
[2]; 0.60 ppm in soil
  Kill in %: 80%
[2]; 1.25 ppm in soil
  Kill in %: 100%
Sphaerotheca fuliginea; 10 g/ha
  Efficacy in % found: 0%
Sphaerotheca fuliginea; 500 g/ha
  Efficacy in % found: 0%
Spodoptera frugiperda [5]; 0.15 ppm in soil
  Kill in %: 0.15 ppm = 50%
[4]; concentration 0.00016 %
  Kill in %: 50%
Fusarium culmorum
  Efficacy in %: 0%
Botrytis cinerea; 10 g/ha
  Efficacy in % found: 0%
Botrytis cinerea; 100 g/ha
  Efficacy in % found: 4%
[6]
  Efficacy in % calculated/found: 0%
[3]; concentration 0.0008 %
  Kill in %: 0%
[7]; concentration 0.00000128 %
  Kill in %: 0%
[8]; concentration 0.000032 %
  Kill in %: 0%
[8]; concentration 0.00016 %
  Kill in %: 20%
Puccinia recondita
  Efficacy in %: 0%
Pyrenophora teres; 18.75 g/ha
  Efficacy in % calculated/found: 20%
Pyrenophora teres; 62.5 g/ha
  Efficacy in % calculated/found: 0%
[9]; 0.15 ppm in soil
  Kill in %: 0.15 ppm = 0%
[9]; 0.30 ppm in soil
  Kill in %: 0.30 ppm = 50%

## Cc1noc(C)c1S(=O)(=O)n1c(Cl)nc2cc3c(cc21)OC(F)(F)O3 [compound according to (50)]
[9]; 20.00 ppm in soil
  Kill in %: 20.00 ppm = 70%

## COCC(=O)N(c1c(C)cccc1C)C(C)C(=O)OC (centres unmarked) [metalaxyl]
Phytophthora infestans; 50 g/ha
  Efficacy in % found: 42%
Spodoptera frugiperda [1]; [10]
  pest or weed control at 20 ppm: 0%
[2]; 20.00 ppm in soil
  Kill in %: 0%
[3]; concentration 0.1 %
  Kill in %: 0%
[7]; concentration 0.1 %
  Kill in %: 0%

## N#Cc1c[nH]cc1-c1cccc(Cl)c1Cl [fenpiclonil]
Spodoptera frugiperda [1]; [10]
  pest or weed control at 20 ppm: 0%
[2]; 20.00 ppm in soil
  Kill in %: 0%
Sphaerotheca fuliginea; 500 g/ha
  Efficacy in % found: 50%

## [O-][n+]1nc(-n2ccnc2)nc2ccc(Cl)cc21 [triazoxides]
Pyrenophora teres; 62.5 g/ha
  Efficacy in % calculated/found: 40%

## CC(C)(C)C(O)C(Oc1ccc(-c2ccccc2)cc1)n1cncn1 (centres unmarked) [bitertanol]
Spodoptera frugiperda [1]; [10]
  pest or weed control at 20 ppm: 0%
[2]; 20.00 ppm in soil
  Kill in %: 0%

## propiconazole
Phytophthora infestans; 500 g/ha
  Efficacy in % found: 5%
Spodoptera frugiperda [1]; 20.00 ppm in soil
  Kill in %: 0%
[2]; 20.00 ppm in soil
  Kill in %: 0%

## CO/N=C(\C1=NOCCO1)c1ccccc1Oc1ncnc(Oc2ccccc2Cl)c1F [compound according to (48)]
[9]; 20.00 ppm in soil
  Kill in %: 20.00 ppm = 0%

## CO/N=C(/C(=O)OC)c1ccccc1COc1ccccc1C [kresoxim-methyl]
[6]
  Efficacy in % calculated/found: 0%
[8]; concentration 0.1 %
  Kill in %: 0%

## OC(Cc1ccccc1Cl)(Cn1nc[nH]c1=S)C1(Cl)CC1 (centres unmarked) [compound of group (49)]
Spodoptera frugiperda [5]; 5.00 ppm in soil
  Kill in %: 5.00 ppm = 0%

From patent US6680325B2, “Agents for combating plant pests” (Bayer Aktiengesellschaft, priority 1998, dated 2004)
